Reference: patent US20150164833A1, “NUTRITIONAL COMPOSITION CONTAINING A NEUROLOGIC COMPONENT OF URSOLIC ACID AND USES THEREOF” (MEAD JOHNSON NUTRITION COMPANY, priority 2013, published 2015)

System: human adipose-derived stem cells (hADSCs)
Experiment: Neurogenesis (neuronal differentiation) of hADSCs in serum-free neuronal differentiation medium, phase contrast microscopy
Assay type: cell-based
Experimental: This example describes the neurogenesis of hADSCs by ursolic acid as compared to DHA (positive control) and hADSCs cultured in the absence of either ursolic acid and DHA (negative control). Ursolic acid was purchased from Sigma-Aldrich (Cat. No. U6753) and diluted in 95% ethanol to a concentration of […], giving a clear faint yellow stick solution that was then stored at −20° C.
hADSCs were purchased from Invitrogen®, also known as Life Technologies, of Carlsbad, Calif., U.S.A., and were cultured as near confluent monolayers in 100 mm culture plates within a maintenance medium consisting of Complete MesenPro RS™ medium with growth supplement and L-glutamine, also obtained from Invitrogen®. The process of culturing, passage, and seeding the hADSCs is described below. The cells were then subjected to removal and reseeded at a density of 0.5-1×10^4 cells/mL onto a 24-well culture plate with poly-L-ornithine and bovine plasma fibronectin coating. The culture medium is the same as the aforementioned maintenance medium. Three days after seeding, the culture medium was changed to a neuronal differentiation medium.
The subculture of hADSCs was performed when cell culture reached confluence. […]

Compound: C[C@H]1[C@H](C)CC[C@]2(C(=O)O)CC[C@]3(C)C(=CC[C@@H]4[C@@]5(C)CC[C@H](O)C(C)(C)[C@@H]5CC[C@]43C)[C@H]12 [ursolic acid, 3-beta-3-hydroxy-urs-12-ene-28-oic-acid]
- neurogenesis of hADSCs (cells undergoing neurogenesis) (30-120 μg/mL ursolic acid, phase contrast microscopy at 24, 48 and 96 hours): A large percentage of cells underwent neurogenesis
- neuronal morphology of hADSCs (ursolic acid at 60 μg/mL, phase contrast microscopy, FIG. 1C): neuronal morphological changes and neurite outgrowth
